This passage reports EC50 results from patent US8076352B2, “Administration of carboline derivatives useful in the treatment of cancer and other diseases” (PTC Therapeutics, Inc., priority 2004, dated 2011).

pEC50: −log10 of the molar value. A value given as a limit tells only on which side of the number the result lay.

The first test concerns hypoxia-inducible endogenous VEGF expression in HeLa cells. The experiment in a line: Hypoxia-inducible endogenous VEGF expression, VEGF ELISA of conditioned media (dose-response EC50). In kind it is cell-based. To be noted: HeLa cells, hypoxic conditions (1% O2). The method in brief:
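Secreted VEGF was quantified by ELISA against a per-assay standard curve after HeLa cells spent 24-48 h in 1% O2, 5% CO2, N2 balance with or without compound. Across a series of, e.g., seven concentrations, percentage inhibition (max 100%, min 0%) gave EC50 and CC50 values.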
A general note: ELISA stands for enzyme-linked immunosorbent assay.
`O=C(Oc1ccc(Cl)cc1)N1CCc2c([nH]c3ccc(Br)cc23)C1c1ccc(C(F)(F)F)cc1` (stereo not drawn) [Compound 570] gave a pEC50 above 8.10. Regarding `CC(C)c1ccc(C2c3[nH]c4ccc(Br)cc4c3CCN2C(=O)Oc2ccc(Cl)cc2)cc1` (stereo not drawn) [Compound 572], the pEC50 is above 8.10. The compound `COC(=O)c1ccc(C2c3[nH]c4ccc(Cl)cc4c3CCN2C(=O)Oc2ccc(F)cc2)cc1` (stereo not drawn) [Compound 579] showed a pEC50 above 8.10.

The same test, now with this note: Homo sapiens, HeLa cells, hypoxic conditions (1% O2).
As to `CCOC(=O)N1CCc2c([nH]c3ccc(Cl)cc23)C1c1cccc(C(=O)N(C)C)c1` (stereo not drawn) [Compound 520], the pEC50 was 6.00 to 6.70.

Turning to `CCOC(=O)N1CCc2c([nH]c3ccc(Cl)cc23)C1c1ccc(C(=O)NCCC2CCCN2C)cc1` (stereo not drawn) [Compound 521], the pEC50 was 6.00 to 6.70. Consider `CCOC(=O)N1CCc2c([nH]c3ccc(Cl)cc23)C1C(C)Cc1ccc(C(C)C)cc1` (stereo not drawn) [Compound 523], for which the pEC50 is 6.00 to 6.70. On the same count and under the same terms, then `CCOC(=O)N1CCc2c([nH]c3ccc(Cl)cc23)C1c1cccc(C(=O)NC)c1` (stereo not drawn) [Compound 524], with 6.00 to 6.70. Same read-out and setting: the same measure for `CCOC(=O)N1CCc2c([nH]c3ccc(Cl)cc23)C1c1cccc(C(=O)N2CCN(CC)CC2)c1` (stereo not drawn) [Compound 525]: 6.00 to 6.70. Same read-out and setting: then `CCOC(=O)N1CCc2c([nH]c3ccc(Cl)cc23)C1c1ccc(C(=O)N2CCC(N3CCCC3)CC2)cc1` (stereo not drawn) [Compound 527], with 6.00 to 6.70; and `CCOC(=O)N1CCc2c([nH]c3ccc(Cl)cc23)C1C(C)Cc1ccc(C(C)(C)C)cc1` (stereo not drawn) [Compound 528], with 6.00 to 6.70.

On to `CCOC(=O)N1CCc2c([nH]c3ccc(Cl)cc23)C1c1cccc(C(=O)N2CCN(C)CC2)c1` (stereo not drawn) [Compound 529], for which the pEC50 was 6.00 to 6.70. On the same count and under the same terms, then `CCOC(=O)N1CCc2c([nH]c3ccc(Cl)cc23)C1c1ccc(C(=O)N2CCC(N3CCCCC3)CC2)cc1` (stereo not drawn) [Compound 531], with 6.00 to 6.70; and `CC(CC1NCCc2c1[nH]c1ccc(Cl)cc21)c1ccccc1` (stereo not drawn) [Compound 532], with 6.00 to 6.70. Compound `CCOC(=O)N1CCc2c([nH]c3ccc(Cl)cc23)C1c1ccc(C(=O)NCCCn2ccnc2)cc1` (stereo not drawn) [Compound 533] had a pEC50 of 6.00 to 6.70. As to `CCOC(=O)N1CCc2c([nH]c3ccc(Cl)cc23)C1c1ccc(C(=O)NCCCN2CCOCC2)cc1` (stereo not drawn) [Compound 534], the pEC50 was 6.00 to 6.70.

`CCOC(=O)N1CCc2c([nH]c3ccc(Br)cc23)C1c1ccc(CNCCN2CCOCC2)cc1` (stereo not drawn) [Compound 535] had a pEC50 of 6.00 to 6.70. The compound `CCOC(=O)N1CCc2c([nH]c3ccc(Br)cc23)C1c1ccc(CN2CCCN(C)CC2)cc1` (stereo not drawn) [Compound 541] had a pEC50 of 6.00 to 6.70. On to `CCOC(=O)N1CCc2c([nH]c3ccc(Cl)cc23)C1c1ccc(C(N)=O)cc1` (stereo not drawn) [Compound 542], for which the pEC50 was 6.00 to 6.70. As for `O=C1NC2CSC(CCCCC(=O)OCCOc3ccc(C4c5[nH]c6ccc(Cl)cc6c5CCN4C(=O)Oc4ccc(Cl)cc4)cc3)C2N1` (stereo not drawn) [Compound 544], the pEC50 is above 8.10. On the same count and under the same terms, then `CCOC(=O)N1CCc2c([nH]c3ccc(Cl)cc23)C1C(C)CC` (stereo not drawn) [Compound 547], with 6.00 to 6.70. Consider `CCOC(=O)N1CCc2c([nH]c3ccc(Cl)cc23)C1c1cccc(C(=O)NCCN2CCOCC2)c1` (stereo not drawn) [Compound 552], for which the pEC50 was 6.00 to 6.70.

In turn, `CCOC(=O)N1CCc2c([nH]c3ccc(Cl)cc23)C1C(C)Cc1ccc2c(c1)OCO2` (stereo not drawn) [Compound 553] showed a pEC50 of 6.00 to 6.70. Same read-out and setting: then `CCOC(=O)N1CCc2c([nH]c3ccc(Cl)cc23)C1c1cccc(C(=O)NCCOC)c1` (stereo not drawn) [Compound 556], with 6.00 to 6.70; and `CCOC(=O)N1CCc2c([nH]c3ccc(Cl)cc23)C1c1ccc(C(=O)N(C)CCCN(C)C)cc1` (stereo not drawn) [Compound 558], with 6.00 to 6.70. The compound `CCC(Br)C(=O)N1CCc2c([nH]c3ccc(Cl)cc23)C1c1ccc(OC)cc1` (stereo not drawn) [Compound 559] had a pEC50 of 6.00 to 6.70.

In turn, `CCOC(=O)N1CCc2c([nH]c3ccc(Br)cc23)C1c1ccc(C(=O)N2CCN(CCCN(C)C)CC2)cc1` (stereo not drawn) [Compound 560] gave a pEC50 below 6.00. Turning to `CCOC(=O)N1CCc2c([nH]c3ccc(Cl)cc23)C1c1ccc(C(=O)N2CCC(NC(C)=O)C2)cc1` (stereo not drawn) [Compound 561], the pEC50 was below 6.00. The same measure, in the same setting: the same measure for `CCOC(=O)N1CCc2c([nH]c3ccc(Cl)cc23)C1c1cccc(C(=O)N2CCN(CCOC)CC2)c1` (stereo not drawn) [Compound 562]: below 6.00.

In turn, `CCOC(=O)N1CCc2c([nH]c3ccc(Cl)cc23)C1c1ccc(C(=O)N(C)CCN(C)C)cc1` (stereo not drawn) [Compound 563] gave a pEC50 below 6.00.

For the compound `CC(C)(C)CC1NCCc2c1[nH]c1ccc(Cl)cc21` (stereo not drawn) [Compound 565], the pEC50 is below 6.00.

Take `CCOC(=O)N1CCc2c([nH]c3ccc(Cl)cc23)C1c1cccc(CN2CCN(CCOC)CC2)c1` (stereo not drawn) [Compound 567]: the pEC50 is below 6.00. In turn, `CSC(C)CC1NCCc2c1[nH]c1ccc(Cl)cc21` (stereo not drawn) [Compound 568] gave a negative-log EC50 (pEC50) below 6.00.

Compound `O=C(Oc1ccc(Cl)cc1)N1CCc2c([nH]c3ccc(Cl)cc23)C1c1ccc(OCCO)cc1` (stereo not drawn) [Compound 571] gave a pEC50 of 6.00 to 6.70. Take `O=C(Oc1ccc(F)cc1)N1CCc2c([nH]c3ccc(Cl)cc23)C1c1ccc(O)cc1` (stereo not drawn) [Compound 575]: the pEC50 is 6.00 to 6.70.

The compound `O=C(Oc1ccc(F)cc1)Oc1ccc(C2c3[nH]c4ccc(Cl)cc4c3CCN2C(=O)Oc2ccc(F)cc2)cc1` (stereo not drawn) [Compound 576] showed a pEC50 of 6.70 to 7.40. `O=C(Oc1ccc(Cl)cc1)N1CCc2c([nH]c3ccc(Cl)cc23)C1c1ccc(O)cc1` (stereo not drawn) [Compound 577] showed a pEC50 of 6.70 to 7.40. Same read-out and setting: then `O=C(Oc1ccc(Cl)cc1)Oc1ccc(C2c3[nH]c4ccc(Cl)cc4c3CCN2C(=O)Oc2ccc(Cl)cc2)cc1` (stereo not drawn) [Compound 578], with 6.70 to 7.40; and `COC(=O)c1ccc(C2c3[nH]c4ccc(Cl)cc4c3CCN2C(=O)Oc2ccc(Cl)cc2)cc1` (stereo not drawn) [Compound 580], with above 8.10; and `O=C(O)c1ccc(C2c3[nH]c4ccc(Cl)cc4c3CCN2C(=O)Oc2ccc(F)cc2)cc1` (stereo not drawn) [Compound 581], with below 6.00.

With `COc1ccc(C2c3[nH]c4ccc(Cl)cc4c3CCN2C(=O)Oc2ccccc2Cl)cc1` (stereo not drawn) [Compound 587], the pEC50 is 6.70 to 7.40. Still for that read-out and setting: then `O=C(Oc1ccccc1Cl)N1CCc2c([nH]c3ccc(Cl)cc23)C1c1ccc(F)cc1` (stereo not drawn) [Compound 588], with 6.70 to 7.40; and `O=C(Oc1ccccc1Cl)N1CCc2c([nH]c3ccc(Cl)cc23)C1c1ccc(Cl)cc1` (stereo not drawn) [Compound 589], with 6.70 to 7.40; and `COC(=O)c1ccc(C2c3[nH]c4ccc(Cl)cc4c3CCN2C(=O)Oc2ccccc2Cl)cc1` (stereo not drawn) [Compound 590], with 7.40 to 8.10.

Compound `COC(=O)c1ccc(C2c3[nH]c4ccc(Br)cc4c3CCN2C(=O)Oc2ccc(Cl)cc2)cc1` (stereo not drawn) [Compound 591] had a pEC50 above 8.10. The same measure, in the same setting: then `COC(=O)c1ccc(C2c3[nH]c4ccc(Br)cc4c3CCN2C(=O)Oc2ccc(F)cc2)cc1` (stereo not drawn) [Compound 592], with above 8.10; and `COC(=O)c1ccc(C2c3[nH]c4ccc(Br)cc4c3CCN2C(=O)Oc2ccccc2Cl)cc1` (stereo not drawn) [Compound 593], with 7.40 to 8.10; and `O=C(Oc1ccccc1Cl)N1CCc2c([nH]c3ccc(Cl)cc23)C1c1ccc(C(F)(F)F)cc1` (stereo not drawn) [Compound 594], with 6.70 to 7.40. Compound `COc1ccc(C2c3[nH]c4ccc(OC)cc4c3CCN2C(=O)Oc2ccc(Cl)cc2)cc1` (stereo not drawn) [Compound 614] showed a pEC50 of 6.00 to 6.70.

Consider `COc1ccc(C2c3[nH]c4ccc(OCc5ccccc5)cc4c3CCN2C(=O)Oc2ccc(Cl)cc2)cc1` (stereo not drawn) [Compound 616], for which the pEC50 is 6.00 to 6.70. The same measure, in the same setting: then `O=C(Oc1ccc(Cl)cc1)N1CCc2c([nH]c3ccc(Cl)cc23)C1c1ccc(OCCCI)cc1` (stereo not drawn) [Compound 617], with 7.40 to 8.10; and `O=C(Oc1ccccc1)N1CCc2c([nH]c3ccc(Cl)cc23)C1c1ccc(OCC(O)CO)cc1` (stereo not drawn) [Compound 626], with 7.40 to 8.10. Same read-out and setting: then `O=C(Oc1ccc(F)cc1)N1CCc2c([nH]c3ccc(Cl)cc23)C1c1ccc(OCC(O)CO)cc1` (stereo not drawn) [Compound 627], with above 8.10; and `O=C(Oc1ccccc1Cl)N1CCc2c([nH]c3ccc(Cl)cc23)C1c1ccc(OCC(O)CO)cc1` (stereo not drawn) [Compound 628], with 6.70 to 7.40; and `O=C(Oc1ccc(Cl)cc1)N1CCc2c([nH]c3ccc(Cl)cc23)C1c1ccc(OCC(O)CO)cc1` (stereo not drawn) [Compound 629], with above 8.10. The same measure, in the same setting: the same measure for `O=C(Oc1ccc(Br)cc1)N1CCc2c([nH]c3ccc(Cl)cc23)C1c1ccc(OCC(O)CO)cc1` (stereo not drawn) [Compound 630]: above 8.10; for `Cc1ccc(OC(=O)N2CCc3c([nH]c4ccc(Cl)cc34)C2c2ccc(OCC(O)CO)cc2)cc1` (stereo not drawn) [Compound 631]: above 8.10; for `O=C(Oc1ccc([N+](=O)[O-])cc1)N1CCc2c([nH]c3ccc(Cl)cc23)C1c1ccc(OCC(O)CO)cc1` (stereo not drawn) [Compound 632]: 7.40 to 8.10. `COc1ccc(OC(=O)N2CCc3c([nH]c4ccc(Cl)cc34)C2c2ccc(OCC(O)CO)cc2)cc1` (stereo not drawn) [Compound 635] showed a pEC50 of 7.40 to 8.10. Take `CC(=O)N1CCN(CC(O)COc2ccc(C3c4[nH]c5ccc(Cl)cc5c4CCN3C(=O)Oc3ccc(F)cc3)cc2)CC1` (stereo not drawn) [Compound 637]: the pEC50 was above 8.10.

As for `O=C(Oc1ccc(F)cc1)N1CCc2c([nH]c3ccc(Cl)cc23)C1c1ccc(OCC(O)CN2CCOCC2)cc1` (stereo not drawn) [Compound 638], the pEC50 is above 8.10.

`O=C(Oc1ccc(Cl)cc1)N1CCc2c([nH]c3ccc(Cl)cc23)C1c1ccc(OCCCCCl)cc1` (stereo not drawn) [Compound 660] gave a pEC50 above 8.10. Turning to `COCCOCCOc1ccc(C2c3[nH]c4ccc(Cl)cc4c3CCN2C(=O)Oc2ccccc2)cc1` (stereo not drawn) [Compound 670], the pEC50 is above 8.10. `COCCOCCOc1ccc(C2c3[nH]c4ccc(Cl)cc4c3CCN2C(=O)Oc2ccccc2Cl)cc1` (stereo not drawn) [Compound 674]: the pEC50 was 7.40 to 8.10. In the case of `COCCOCCOc1ccc(C2c3[nH]c4ccc(Cl)cc4c3CCN2C(=O)Oc2ccc(Cl)cc2)cc1` (stereo not drawn) [Compound 675], the pEC50 was 7.40 to 8.10. On the same count and under the same terms, the same measure for `COCCOCCOc1ccc(C2c3[nH]c4ccc(Cl)cc4c3CCN2C(=O)Oc2ccc(C)cc2)cc1` (stereo not drawn) [Compound 677]: 7.40 to 8.10; for `COCCOCCOc1ccc(C2c3[nH]c4ccc(Cl)cc4c3CCN2C(=O)Oc2ccc(OC)cc2)cc1` (stereo not drawn) [Compound 678]: 6.70 to 7.40.

One may read the pEC50 as the negative decadic logarithm of the EC50, by convention in mol/L. Lower therefore signals a high EC50.
